The molecules below were run against T1, KRAS G12C 1-169, his-tagged protein, GDP-loaded (Homo sapiens, UniProt P01116, G12C) (assay: Biochemical assay: covalent modification of KRAS G12C measured by mass spectrometry (RapidFire/TOF or Q-Exactive)). Settings: Example 14 comparative biochemical data; tested according to the above procedures (Example 1).
T1 construct: KRAS G12C 1-169, his-tagged protein, GDP-loaded
Assay type: binding
Summary of the method: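 GDP-loaded KRAS G12C 1-169 (his-tagged) at 2 μM or 0.5 μM in 20 mM Hepes, 150 mM NaCl, 1 mM MgCl2, incubated with compound at 100, 30 or 10 μM at room temperature for 10 min, 30 min, 2 h or 24 h, then quenched with formic acid. Intact-protein LC-MS, deconvolved; percent modification from modified versus unmodified protein.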

Row | binding activity | SMILES
1 | 71% | C=CC(=O)N1C[C@H](C)N(c2nc(N3CC(N(C)C)C3)nc3c(F)c(-c4c(C)ccc5[nH]ncc45)c(Cl)cc23)C[C@H]1C (atropisomer, axis not shown) [reference compound]

Same assay, conditions: covalent binding to (modification of) KRAS G12C after a ten minute incubation period

Row | SMILES | Binding %
2 | C=CC(=O)N1C[C@H](C)N(c2nc(OC[C@H]3CCCN3C)nc3c(F)c(-c4c(C)ccc5cnn(C)c45)c(Cl)cc23)C[C@H]1C (atropisomer, axis not shown) [Compound 236, 1-((2R,5S)-4-((R)-6-chloro-7-(1,6-dimethyl-1H-indazol-7-yl)-8-fluoro-2-(((R)-1-methylpyrrolidin-2-yl)methoxy)quinazolin-4-yl)-2,5-dimethylpiperazin-1-yl)prop-2-en-1-one] | + (+ indicates binding activity greater than 0% and up to 50%)
3 | C=CC(=O)N1C[C@@H](C)N(c2nc(N3CC(N(C)C)C3)nc3c(F)c(-c4c(C)ccc5cnn(C)c45)c(Cl)cc23)C[C@H]1C (atropisomer, axis not shown) [Compound 242, 1-((2R,5R)-4-((S)-6-chloro-7-(1,6-dimethyl-1H-indazol-7-yl)-2-(3-(dimethylamino)azetidin-1-yl)-8-fluoroquinazolin-4-yl)-2,5-dimethylpiperazin-1-yl)prop-2-en-1-one] | + (+ indicates binding activity greater than 0% and up to 50%)
4 | C=CC(=O)N1C[C@@H](C)N(c2nc(N3CC(N(C)C)C3)nc3c(F)c(-c4c(C)ccc5cnn(C)c45)c(Cl)cc23)C[C@H]1C (atropisomer, axis not shown) [Compound 243, 1-((2R,5R)-4-((R)-6-chloro-7-(1,6-dimethyl-1H-indazol-7-yl)-2-(3-(dimethylamino)azetidin-1-yl)-8-fluoroquinazolin-4-yl)-2,5-dimethylpiperazin-1-yl)prop-2-en-1-one] | +++ (+++ indicates binding activity greater than 80%)
5 | C=CC(=O)N1C[C@@H](C)N(c2nc(N3CC(N(C)C)C3)nc3c(F)c(-c4c(C)ccc5cnn(C)c45)c(Cl)cc23)C[C@@H]1C (atropisomer, axis not shown) [Compound 245, 1-((2S,5R)-4-((S)-6-chloro-7-(1,6-dimethyl-1H-indazol-7-yl)-2-(3-(dimethylamino)azetidin-1-yl)-8-fluoroquinazolin-4-yl)-2,5-dimethylpiperazin-1-yl)prop-2-en-1-one] | + (+ indicates binding activity greater than 0% and up to 50%)
6 | C=CC(=O)N1C[C@@H](C)N(c2nc(N3CC(N(C)C)C3)nc3c(F)c(-c4c(C)ccc5cnn(C)c45)c(Cl)cc23)C[C@@H]1C (atropisomer, axis not shown) [Compound 246, 1-((2S,5R)-4-((R)-6-chloro-7-(1,6-dimethyl-1H-indazol-7-yl)-2-(3-(dimethylamino)azetidin-1-yl)-8-fluoroquinazolin-4-yl)-2,5-dimethylpiperazin-1-yl)prop-2-en-1-one] | + (+ indicates binding activity greater than 0% and up to 50%)
7 | C=CC(=O)N1C[C@H](C)N(c2nc(N3CC(N(C)C)C3)nc3c(F)c(-c4c(C)ccc5cnn(C)c45)c(Cl)cc23)C[C@@H]1C (atropisomer, axis not shown) [Compound 248, 1-((2S,5S)-4-((S)-6-chloro-7-(1,6-dimethyl-1H-indazol-7-yl)-2-(3-(dimethylamino)azetidin-1-yl)-8-fluoroquinazolin-4-yl)-2,5-dimethylpiperazin-1-yl)prop-2-en-1-one] | + (+ indicates binding activity greater than 0% and up to 50%)
8 | C=CC(=O)N1C[C@H](C)N(c2nc(N3CC(N(C)C)C3)nc3c(F)c(-c4c(C)ccc5cnn(C)c45)c(Cl)cc23)C[C@@H]1C (atropisomer, axis not shown) [Compound 249, 1-((2S,5S)-4-((R)-6-chloro-7-(1,6-dimethyl-1H-indazol-7-yl)-2-(3-(dimethylamino)azetidin-1-yl)-8-fluoroquinazolin-4-yl)-2,5-dimethylpiperazin-1-yl)prop-2-en-1-one] | + (+ indicates binding activity greater than 0% and up to 50%)
9 | C=CC(=O)N1C[C@@H](C)N(c2nc(N3CC(N(C)C)C3)nc3c(F)c(-c4c(C)ccc5[nH]nc(C6CC6)c45)c(Cl)cc23)C[C@H]1C (atropisomer, axis not shown) [Compound 250, 1-((2R,5R)-4-((S)-6-chloro-7-(3-cyclopropyl-5-methyl-1H-indazol-4-yl)-2-(3-(dimethylamino)azetidin-1-yl)-8-fluoroquinazolin-4-yl)-2,5-dimethylpiperazin-1-yl)prop-2-en-1-one] | + (+ indicates binding activity greater than 0% and up to 50%)
10 | C=CC(=O)N1C[C@@H](C)N(c2nc(N3CC(N(C)C)C3)nc3c(F)c(-c4c(C)ccc5[nH]nc(C6CC6)c45)c(Cl)cc23)C[C@H]1C (atropisomer, axis not shown) [Compound 251, 1-((2R,5R)-4-((R)-6-chloro-7-(3-cyclopropyl-5-methyl-1H-indazol-4-yl)-2-(3-(dimethylamino)azetidin-1-yl)-8-fluoroquinazolin-4-yl)-2,5-dimethylpiperazin-1-yl)prop-2-en-1-one] | +++ (+++ indicates binding activity greater than 80%)
11 | C=CC(=O)N1C[C@@H](C)N(c2nc(N3CC(N(C)C)C3)nc3c(F)c(-c4c(C)ccc5[nH]nc(C6CC6)c45)c(Cl)cc23)C[C@@H]1C (atropisomer, axis not shown) [Compound 252, 1-((2S,5R)-4-((S)-6-chloro-7-(3-cyclopropyl-5-methyl-1H-indazol-4-yl)-2-(3-(dimethylamino)azetidin-1-yl)-8-fluoroquinazolin-4-yl)-2,5-dimethylpiperazin-1-yl)prop-2-en-1-one] | + (+ indicates binding activity greater than 0% and up to 50%)
12 | C=CC(=O)N1C[C@@H](C)N(c2nc(N3CC(N(C)C)C3)nc3c(F)c(-c4c(C)ccc5[nH]nc(C6CC6)c45)c(Cl)cc23)C[C@@H]1C (atropisomer, axis not shown) [Compound 253, 1-((2S,5R)-4-((R)-6-chloro-7-(3-cyclopropyl-5-methyl-1H-indazol-4-yl)-2-(3-(dimethylamino)azetidin-1-yl)-8-fluoroquinazolin-4-yl)-2,5-dimethylpiperazin-1-yl)prop-2-en-1-one] | + (+ indicates binding activity greater than 0% and up to 50%)
13 | C=CC(=O)N1C[C@H](C)N(c2nc(N3CC(N(C)C)C3)nc3c(F)c(-c4c(C)ccc5[nH]nc(C6CC6)c45)c(Cl)cc23)C[C@@H]1C (atropisomer, axis not shown) [Compound 254, 1-((2S,5S)-4-((S)-6-chloro-7-(3-cyclopropyl-5-methyl-1H-indazol-4-yl)-2-(3-(dimethylamino)azetidin-1-yl)-8-fluoroquinazolin-4-yl)-2,5-dimethylpiperazin-1-yl)prop-2-en-1-one] | + (+ indicates binding activity greater than 0% and up to 50%)
14 | C=CC(=O)N1C[C@H](C)N(c2nc(N3CC(N(C)C)C3)nc3c(F)c(-c4c(C)ccc5[nH]nc(C6CC6)c45)c(Cl)cc23)C[C@@H]1C (atropisomer, axis not shown) [Compound 255, 1-((2S,5S)-4-((R)-6-chloro-7-(3-cyclopropyl-5-methyl-1H-indazol-4-yl)-2-(3-(dimethylamino)azetidin-1-yl)-8-fluoroquinazolin-4-yl)-2,5-dimethylpiperazin-1-yl)prop-2-en-1-one] | + (+ indicates binding activity greater than 0% and up to 50%)
15 | C=CC(=O)N1C[C@H](C)N(c2nc(OC[C@H]3CCCN3C)nc3c(F)c(-c4c(C)ccc5cnn(C)c45)c(Cl)cc23)C[C@H]1C (atropisomer, axis not shown) [Compound 261, 1-((2R,5S)-4-((S)-6-chloro-7-(1,6-dimethyl-1H-indazol-7-yl)-8-fluoro-2-(((R)-1-methylpyrrolidin-2-yl)methoxy)quinazolin-4-yl)-2,5-dimethylpiperazin-1-yl)prop-2-en-1-one] | +++ (+++ indicates binding activity greater than 80%)
16 | C=CC(=O)N1C[C@H](C)N(c2nc(N3CC(N(C)C)C3)nc3c(F)c(-c4cccc5[nH]ncc45)c(Cl)cc23)C[C@H]1C [Compound 1, 1-((2R,5S)-4-(6-chloro-2-(3-(dimethylamino)azetidin-1-yl)-8-fluoro-7-(1H-indazol-4-yl)quinazolin-4-yl)-2,5-dimethylpiperazin-1-yl)prop-2-en-1-one] | ++ (++ indicates binding activity from 50 to 80%)
17 | C=CC(=O)N1C[C@H](C)N(c2nc(N3CC(N(C)C)C3)nc3c(F)c(-c4cccc5[nH]nc(N)c45)c(Cl)cc23)C[C@H]1C [Compound 2, 1-((2R,5S)-4-(7-(3-amino-1H-indazol-4-yl)-6-chloro-2-(3-(dimethylamino)azetidin-1-yl)-8-fluoroquinazolin-4-yl)-2,5-dimethylpiperazin-1-yl)prop-2-en-1-one] | ++ (++ indicates binding activity from 50 to 80%)
18 | C=CC(=O)N1C[C@H](C)N(c2nc(N3CC(N(C)C)C3)nc3c(F)c(-c4c(C)ccc5[nH]nc(N)c45)c(Cl)cc23)C[C@H]1C [Compound 3, 1-((2R,5S)-4-(7-(3-amino-5-methyl-1H-indazol-4-yl)-6-chloro-2-(3-(dimethylamino)azetidin-1-yl)-8-fluoroquinazolin-4-yl)-2,5-dimethylpiperazin-1-yl)prop-2-en-1-one] | +++ (+++ indicates binding activity greater than 80%)
19 | C=CC(=O)N1C[C@H](C)N(c2nc(N3CC(N(C)C)C3)nc3c(F)c(-c4c(C)ccc5[nH]nc(NC)c45)c(Cl)cc23)C[C@H]1C [Compound 13, 1-((2R,5S)-4-(6-chloro-2-(3-(dimethylamino)azetidin-1-yl)-8-fluoro-7-(5-methyl-3-(methylamino)-1H-indazol-4-yl)quinazolin-4-yl)-2,5-dimethylpiperazin-1-yl)prop-2-en-1-one] | ++ (++ indicates binding activity from 50 to 80%)
